Values quoted from earlier work, collected in patent publication US20030093057A1, “Methods and formulations for photodynamic therapy” (priority 2001, published 2003).
Where two headings read alike, the source gives them in different places.

Key:
[1] = human skin
[2] = mouse skin

penetration of ALA into skin at increased temperature [1]: did not cause increased penetration
penetration of ALA into skin at increased temperature [2]: did not cause increased penetration
SMILES: NCC(=O)CCC(=O)O [ALA, delta-aminolevulinic acid]
